According to PMC5243976 (Iranian Journal of Basic Medical Sciences, 2017):
pIC50: −log10 of the molar value.

Target: acetylcholinesterase from electric eel source (AChE, E.C. 3.1.1.7, Type V-S) (Electrophorus electricus, UniProt O42275)
Test: Ellman test, anti-acetylcholinesterase activity
Assay type: biochemical

acetylcholinesterase from electric eel source (AChE, E.C. 3.1.1.7, Type V-S), sequence (O42275 24-633): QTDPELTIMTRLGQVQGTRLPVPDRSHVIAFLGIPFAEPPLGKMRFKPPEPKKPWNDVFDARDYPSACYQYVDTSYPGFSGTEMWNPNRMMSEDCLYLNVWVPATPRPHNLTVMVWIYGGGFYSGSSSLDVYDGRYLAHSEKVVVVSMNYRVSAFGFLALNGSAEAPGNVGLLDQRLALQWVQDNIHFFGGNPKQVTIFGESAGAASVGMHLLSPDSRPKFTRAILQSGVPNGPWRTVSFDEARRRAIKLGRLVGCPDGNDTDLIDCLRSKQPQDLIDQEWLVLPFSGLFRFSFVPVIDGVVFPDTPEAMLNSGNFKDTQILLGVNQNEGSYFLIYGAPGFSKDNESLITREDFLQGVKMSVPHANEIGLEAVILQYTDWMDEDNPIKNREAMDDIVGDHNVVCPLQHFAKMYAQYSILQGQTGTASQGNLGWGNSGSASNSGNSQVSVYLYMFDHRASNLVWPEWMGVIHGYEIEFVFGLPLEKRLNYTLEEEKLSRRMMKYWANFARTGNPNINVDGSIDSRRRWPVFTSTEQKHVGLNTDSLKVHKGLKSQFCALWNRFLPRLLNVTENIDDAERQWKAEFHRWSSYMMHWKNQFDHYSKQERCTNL

SMILES	pIC50
O=C(c1ccccc1Cl)N1CCN(CCN2C(=O)c3ccccc3C2=O)CC1 [Compound 4a, 2-(2-(4-(2-Chlorobenzoyl)piperazin-1-yl)ethyl) isoindoline-1,3-dione]	3.48
O=C(c1cccc(Cl)c1)N1CCN(CCN2C(=O)c3ccccc3C2=O)CC1 [Compound 4b, 2-(2-(4-(3-Chlorobenzoyl)piperazin-1-yl)ethyl) isoindoline-1,3-dione]	4.15
O=C(c1ccc(Cl)cc1)N1CCN(CCN2C(=O)c3ccccc3C2=O)CC1 [Compound 4c, 2-(2-(4-(4-Chlorobenzoyl)piperazin-1-yl)ethyl) isoindoline-1,3-dione]	< 3.00
O=C(c1ccccc1F)N1CCN(CCN2C(=O)c3ccccc3C2=O)CC1 [Compound 4d, 2-(2-(4-(2-Fluorobenzoyl)piperazin-1-yl)ethyl) isoindoline-1,3-dione]	5.44
O=C(c1cccc(F)c1)N1CCN(CCN2C(=O)c3ccccc3C2=O)CC1 [Compound 4e, 2-(2-(4-(3-Fluorobenzoyl)piperazin-1-yl)ethyl) isoindoline-1,3-dione]	8.15
O=C(c1ccc(F)cc1)N1CCN(CCN2C(=O)c3ccccc3C2=O)CC1 [Compound 4f, 2-(2-(4-(4-Fluorobenzoyl)piperazin-1-yl)ethyl) isoindoline-1,3-dione]	4.30
COc1ccccc1C(=O)N1CCN(CCN2C(=O)c3ccccc3C2=O)CC1 [Compound 4g, 2-(2-(4-(2-Methoxybenzoyl)piperazin-1-yl)ethyl) isoindoline-1,3-dione]	4.00
COc1cccc(C(=O)N2CCN(CCN3C(=O)c4ccccc4C3=O)CC2)c1 [Compound 4h, 2-(2-(4-(3-Methoxybenzoyl)piperazin-1-yl)ethyl) isoindoline-1,3-dione]	5.89
COc1ccc(C(=O)N2CCN(CCN3C(=O)c4ccccc4C3=O)CC2)cc1 [Compound 4i, 2-(2-(4-(4-Methoxybenzoyl)piperazin-1-yl)ethyl) isoindoline-1,3-dione]	7.69
O=C(c1ccccc1[N+](=O)[O-])N1CCN(CCN2C(=O)c3ccccc3C2=O)CC1 [Compound 4j, 2-(2-(4-(2-Nitrobenzoyl)piperazin-1-yl)ethyl) isoindoline-1,3-dione]	3.85
